Columns and labels:
WWP1 = target: T1, WWP1 (Mus musculus, UniProt Q8BZZ3); test: OSE2 (osteocalcin) luciferase reporter assay, primary screen; format: cell-based, murine
T1 construct: The LKO.1 lentiviral vectors expressing RNAi against murine WWP1; endogenous in cells; host or cells: C3H10T1/2 (murine mesenchymal stem cell line)
Protocol: A cell-based reporter assay was modified for use as a primary screen. It is based on the inhibition by WWPI of Runx2 activation of a target promoter sequence from the osteocalcin gene. The murine mesenchymal stem cell line, C3H10T1/2 was maintained in DMEM+10% FBS. Cells were seeded overnight in a 12-wlel dish at 8×10^4 cells/well and transfected with the multimerized osteocalcin (OSE) luciferase (6×OSE2) reporter gene plasmid and combinations of expression constructs, as indicated, by Effectene (Qiagen). Total amounts of transfected DNA were kept constant by supplementing with control empty expression vector plasmids. All cells were cotransfected with pRL-TK (Promega) to control for transfection efficience. Forty-eight hours after transfection, cells were harvested and lysed in 1×Passive Lysis Buffer (Promega) and luciferase assays performed using the Dual-Luciferase Reporter Assay System (Promega).
Runx2 transactivation function in luciferase reporter assays was enhanced in WWPli cells. The LKO.1 lentiviral vectors expressing RNAi against murine WWP1, and GFP were cotransfected along with D8.9 and VSV-G plasmids into […] cells utilizing Effectene (Qiagen).

[1] = tested on: primary human mesenchymal stem cells (MSCs); test: Human osteoblast differentiation in vitro (mineralization); format: cell-based; settings: compound included in the MSC osteoblast differentiation culture system
Protocol: This cell-based assay uses a 96-well format in which primary human mesenchymal stem cells (MSCs) are differentiated into osteoblasts following an established protocol that results in a high rate of differentiation. To induce osteoblast differentiation, MSC are seeded at a low density (3.1×10^3 cells per cm2) and cultured in media containing β-glycerolphosphate and ascorbic acid for fourteen days. For testing of candidate compounds, MSCs will be differentiated in the presence of the compounds for the duration of the 14-day culture period. Osteoblast differentiation is then assayed via a simple colorometric readout that reflects the levels of cellular alkaline phosphates (ALP), an enzyme present in differentiating osteoblasts but absent in MSCs. ALP levels are then normalized to cell number, which is measured by utilizing the Alamar blue assay. Mineralization can be assessed by staining with xylenol orange. The screen and the 96-well format will allow multiple compounds to be tested at various concentrations. A substantial number of compounds may be identified that are active at a nanomolar concentration.

T1 sequence (Q8BZZ3 whole entry): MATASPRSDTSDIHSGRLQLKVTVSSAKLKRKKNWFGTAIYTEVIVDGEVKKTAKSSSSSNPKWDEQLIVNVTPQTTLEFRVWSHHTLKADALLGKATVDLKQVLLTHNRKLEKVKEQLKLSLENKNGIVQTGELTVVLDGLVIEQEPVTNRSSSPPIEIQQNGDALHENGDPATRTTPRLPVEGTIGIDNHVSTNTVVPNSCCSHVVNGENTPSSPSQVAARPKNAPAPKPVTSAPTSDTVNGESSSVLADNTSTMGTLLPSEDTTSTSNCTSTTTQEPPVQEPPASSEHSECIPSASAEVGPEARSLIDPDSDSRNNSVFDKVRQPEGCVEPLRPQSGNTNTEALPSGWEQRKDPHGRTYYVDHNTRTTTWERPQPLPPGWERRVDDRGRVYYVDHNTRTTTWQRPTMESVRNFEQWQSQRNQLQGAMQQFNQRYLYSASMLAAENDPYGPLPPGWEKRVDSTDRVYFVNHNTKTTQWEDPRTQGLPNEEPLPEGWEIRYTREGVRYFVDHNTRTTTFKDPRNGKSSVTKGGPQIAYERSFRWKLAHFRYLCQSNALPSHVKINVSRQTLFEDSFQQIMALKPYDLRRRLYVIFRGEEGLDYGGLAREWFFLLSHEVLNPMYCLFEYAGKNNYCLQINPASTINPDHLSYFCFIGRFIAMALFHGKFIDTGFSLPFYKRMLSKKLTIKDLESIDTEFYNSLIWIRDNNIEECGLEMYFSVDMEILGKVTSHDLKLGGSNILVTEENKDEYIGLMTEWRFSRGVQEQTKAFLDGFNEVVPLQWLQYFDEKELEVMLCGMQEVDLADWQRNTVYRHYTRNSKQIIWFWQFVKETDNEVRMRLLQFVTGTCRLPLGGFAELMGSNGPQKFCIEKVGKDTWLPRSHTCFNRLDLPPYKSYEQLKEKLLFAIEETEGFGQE

Runx2 transactivation in the OSE2 reporter assay (WWP1; C3H10T1/2 cells, 6xOSE2 luciferase reporter): increase Runx2 transactivation
WWP1 inhibition inferred from the OSE2 reporter assay (WWP1; concluded from increased Runx2 transactivation): inhibit WWP1
Structure (SMILES): O=c1[nH]cc(CS(=O)(=O)Cc2c[nH]c(=O)[nH]c2=O)c(=O)[nH]1 [5,5′-(sulfonyldimethylene)diuracil]
formation of mineralized nodules [1]: substantially increased formation of mineralized nodules
